Results on four compounds are retold here after patent US20230348473A1, “SUBSTITUTED PYRIDINES AS PARP1 INHIBITORS” (Xinthera, Inc., priority 2022, published 2023).

pEC50, pIC50: −log10 of the molar value. Bounds are passed on as bounds.

One data set addresses PARP2 (Homo sapiens (Human), UniProt Q9UGN5). In words: Biochemical fluorescence polarization (FP) assay, PARPi-FL displacement, PARP2. Format: binding. Particulars: 20 nM protein, 3 nM PARPi-FL, 4 h. The protocol: (§1) To characterize our compounds, we utilized an assay measuring the displacement of a commercially available fluorescently labeled PARP 1/2 inhibitor (PARPi-FL, Tocris Biosciences, #6461) as exemplified in assays performed in WO2014/064149 and WO2021/013735A1. The assay was performed utilizing the following method: Compounds were dissolved in DMSO an Echo550 liquid handler was utilized to make serial dilations in the desired concentration range in Optiplate-384F plates. 100% DMSO was used for the high (with protein) and low (without protein) control samples. 20 nL of compound or DMSO alone was added to individual assay plate wells. […] The PARPi-FL was then added at a final concentration of 3 nM. The assay plate is centrifuged at 1000 rpm for 1 min and incubated for 4 h at room temperature. […] XLFit (equation 201) is used to calculate a reported IC50 for each compound.

Data set [1] in a line: In vivo determination of rat Kp,uu. As to conditions: male Sprague-Dawley rats, oral gavage, Kp*(fraction unbound in brain homogenate/fraction unbound in plasma). The protocol: The equilibrium dialysis method was used to investigate the in vitro binding of test articles and reference compounds to plasma proteins. Plasma samples containing 5 μM test article or blank dialysis buffer solution (PBS, pH 7.4) were added to separate chambers of the dialysis wells of the High Throughput equilibrium Dialysis (HTD) device. The dialysis plate was sealed and placed in an incubator at 37° C. with 5% CO2 with shaking at approximately 100 rpm for 6 hours. All experiments were performed in duplicable. Ketoconazole (5 μM) was used as the reference compound. After incubation, the seal was removed, and 50 μL of post-dialysis samples were pipetted from both buffer and plasma chambers into fresh 96-well plates. Samples were equimatrilyzed by either addition of blank plasma to buffer samples or the addition of blank buffer to plasma samples. Subsequently, 400 μL (4 volumes) of acetonitrile containing internal were added to all samples to precipitate proteins prior to analysis by UPLC-MS/MS to determine the relative concentrations of test articles. The unbound fractions in plasma were calculated using the concentrations of test articles in buffer and plasma samples according to the following equation: […]
The equilibrium dialysis method was used to investigate the in vitro binding of test articles and reference compounds to rodent brain homogenate. Brains collected from naïve animals were weighed and homogenized in 4 volumes of PBS, pH 7.4. […] The unbound fractions in diluted brain homogenate were calculated using the concentrations of test articles in buffer and homogenate samples according to the following equation: […]
Prior to bioanalysis, plasma and brain samples were extracted with 4 volumes of acetonitrile containing internal standard and centrifuged for 15 minutes. […] Plasma and brain homogenate drug concentrations were determined against calibration curves generated by spiking blank rat plasma or brain homogenate with drug across an appropriate concentration range. […]

The target of a further data set is PARP1 (Homo sapiens (Human), UniProt P09874). In words: Biochemical fluorescence polarization (FP) assay, PARPi-FL displacement, PARP1. The data set is classed as binding. As to conditions: 20 nM protein, 3 nM PARPi-FL, 4 h. How it is done:
as §1

Data set [2] is described as follows: HLM metabolic stability, predicted human hepatic clearance. Format: in vitro ADME. As to conditions: well-stirred model, 1 μM. The protocol: Working stocks of individual test articles were prepared at a concentration of 100 μM by diluting 10 mM stocks prepared in DMSO 100-fold (v:v) into ACN. Thawed hepatic microsomes were suspended in 100 mM potassium phosphate buffer, pH 7.4 to a microsomal protein concentration of 0.562 mg/mL. Diluted microsomes were combined with a solution of 10 mM NADPH, and the mixture was pre-warmed to 37° C. for 8 min. Reactions were initiated by addition of the test article working stocks to achieve a final test article concentration of 1 μM. Final microsomal protein and NADPH concentrations were 0.5 mg/mL and 1 mM, respectively. Incubations containing NADPH were run in duplicate. Test article losses mediated by non-CYP mechanisms were evaluated in a parallel set of incubations run in the absence of NADPH. Incubations lacking NADPH consisted of 1 replicate per test article. Following incubation in a 37° C. water bath, aliquots of individual reactions were quenched with cold ACN containing internal standards at […], 15-, 30-, 60-, 90-, and 120-min. Precipitated protein was pelleted via refrigerated centrifugation. Supernatants were diluted into an equal volume of pure water and mixed well prior to analysis via LC-MS/MS. In vitro intrinsic clearances (CLint) in μL/min/mg were determined for each incubation from calculated in vitro half-lives determined using a standard log-linear regression approach. In vitro CLint values were scaled up using the following physiological scaling factors: 40 mg microsomal protein/g human liver and 25.7 g human liver/kg body weight.

The nature of data set [3]: Caco-2 bidirectional permeability. Format: in vitro ADME. As to conditions: human, 5 μM, 2 hours. The protocol: Following a 1-hr. equilibration period in cell culture medium maintained at 37° C. in an incubator containing a 5% CO2 atmosphere at 95% relative humidity, Corning 96-well HTS Transwell® permeable support plates were seeded with 34,300 Caco-2 cells (ATCC) per well. Following seeding, plates were cultured for 14-18 days with cell culture medium replacement every other day beginning no later than 24 hr. after plating. Monolayer barrier integrity was monitored during the culture period using transepithelial electrical resistance (TEER) measurements taken with a Millicell Epithelial Volt-Ohm system. Caco-2 monolayers were considered ready for use when the TEER value >230 ohm·cm^2. Working stocks of individual test articles were prepared at a concentration of 5 μM by diluting 1 mM stocks prepared in DMSO into 10 mM HEPES. Prior to conducting the assay, Caco-2 plates were washed twice with prewarmed 10 mM HEPES and then equilibrated in 10 mM HEPES for 30 min. at 37° C. Following equilibration, test article flux was tested bidirectionally (in both the apical-to-basolateral and basolateral-to-apical directions) by adding test article working stocks to either the apical or basolateral chambers. Blank 10 mM HEPES was added to the opposite sides. Plates were then incubated at 37° C. for 2 hours. At the end of the incubation, aliquots from both sides of each monolayer were quenched with 4 volumes of ACN containing internal standards. Following a centrifugation step, supernatants were diluted with pure water prior to analysis via LC-MS/MS.
Apparent permeability (Papp, ×10^−6 cm/s) was calculated for all transport assays using the following equation: […]
Where: Papp is apparent permeability (×10^−6 cm/s). • dQ/dt is the rate of drug transport (pmol/s). • A is the surface area of the membrane (cm^2). • D0 is the initial donor concentration (nM; pmol/cm^3).
Efflux ratio was determined by calculating the ratio of the Papp in the basolateral-to-apical direction to the Papp in the apical-to-basolateral direction using the following equation: […]
Where: Papp (B-to-A) is the apparent permeability in the basolateral-to-apical direction. • Papp (A-to-B) is the apparent permeability in the apical-to-basolateral direction.

Data set [4] in a line: hHEP metabolic stability, predicted human hepatic clearance. The data set is classed as in vitro ADME. Particulars: well-stirred model, 1 μM. The protocol: Working stocks of individual test articles were prepared at concentrations of 100 μM by diluting 10 mM stocks prepared in DMSO 100-fold (v:v) into ACN/H2O (50/50, v:v). Human cryopreserved hepatocytes were thawed in a 37° C. water bath in <2 min., suspended in thawing media, and then centrifuged at 100×g for 10 min. Thawing media was aspirated, and pelleted hepatocytes were resuspended into incubation media at 1.5×10^6 cells/mL. Cell viability was determined using an Acridine Orange/Propidium Iodine stain, and hepatocytes were further diluted with incubation media to 0.5×10^6 viable cells/mL. Hepatocyte aliquots of 198 μL were added to wells of a 96-well plate, and test article incubations were initiated by the addition of 2 μL of 100 μM working stocks. Plates were incubated at 37° C. in a 5% CO2 atmosphere at 95% relative humidity on an orbital shaker at 300 rpm. Incubations were performed in duplicate. Following incubation, aliquots of individual reactions were terminated by addition of ACN containing internal standards at 0, 30-, 60-, 90-, 120-, and 240-min. Precipitated protein was pelleted via refrigerated centrifugation. Supernatants were diluted into an equal volume of pure water and mixed well prior to analysis via LC-MS/MS. In vitro intrinsic clearances (CLint) in μL/min/10^6 cells were determined for each incubation from calculated in vitro half-lives determined using a standard log-linear regression approach. In vitro CLint values were scaled up using the following physiological scaling factors: 99×10^6 cells/g human liver and 25.7 g human liver/kg body weight.

The test system of another data set is DLD-1 parental cells. In words: Cell growth inhibition assay (CellTiter-Glo), DLD-1 parental. Format: cell-based. As to conditions: Homo sapiens, DLD-1, 168 h; 7 days, CellTiter Glo 2.0. The source says:
The objective of this study is to evaluate the effect of compound disclosed herein on cell proliferation through the cell viability assay in DLD-1 BRCA2(−/−) and parental isogenic pair and MDA-MB-436 (mutated BRCA1) cell lines. The CellTiter-Glo (CTG) based cell viability assay is designed to determine the number of viable cells in the culture because of compound effect, by quantifying ATP, which indicates the presence of metabolically active cells.
DLD-1 BRCA2(−/−) and parental isogenic pair were cultured in RPMI 1640 supplemented with 10% fetal bovine serum (FBS), and MDA-MB-436 cells were cultured in DMEM supplemented with 10% FBS. Both are culture at 37° C. with 5% CO2. Invention compounds were distributed to the 384 well plate (Corning, 3764) using Echo acoustic liquid handler to form a 1:3 serially diluted final concentration with top dose of 10 or 30 μM. The cells were seeded into the plate in the density of 50 cells/well (DLD-1 parental), 200 cells/well (DLD-1 BRCA2−/−), or 500 cells/well (MDA-MB-436). After a short spun, the cells were cultured in a well moisturized incubator at 37° C. with 5% CO2 for 7 days without disturbance. The cell viability was measured by CellTiter Glo 2.0 assay kit (Promega, G9243), and growth inhibition rate was calculated and plotted against final compound concentration, and the data were fitted in Xfit to generate IC50.

PARP1, sequence (P09874 whole entry): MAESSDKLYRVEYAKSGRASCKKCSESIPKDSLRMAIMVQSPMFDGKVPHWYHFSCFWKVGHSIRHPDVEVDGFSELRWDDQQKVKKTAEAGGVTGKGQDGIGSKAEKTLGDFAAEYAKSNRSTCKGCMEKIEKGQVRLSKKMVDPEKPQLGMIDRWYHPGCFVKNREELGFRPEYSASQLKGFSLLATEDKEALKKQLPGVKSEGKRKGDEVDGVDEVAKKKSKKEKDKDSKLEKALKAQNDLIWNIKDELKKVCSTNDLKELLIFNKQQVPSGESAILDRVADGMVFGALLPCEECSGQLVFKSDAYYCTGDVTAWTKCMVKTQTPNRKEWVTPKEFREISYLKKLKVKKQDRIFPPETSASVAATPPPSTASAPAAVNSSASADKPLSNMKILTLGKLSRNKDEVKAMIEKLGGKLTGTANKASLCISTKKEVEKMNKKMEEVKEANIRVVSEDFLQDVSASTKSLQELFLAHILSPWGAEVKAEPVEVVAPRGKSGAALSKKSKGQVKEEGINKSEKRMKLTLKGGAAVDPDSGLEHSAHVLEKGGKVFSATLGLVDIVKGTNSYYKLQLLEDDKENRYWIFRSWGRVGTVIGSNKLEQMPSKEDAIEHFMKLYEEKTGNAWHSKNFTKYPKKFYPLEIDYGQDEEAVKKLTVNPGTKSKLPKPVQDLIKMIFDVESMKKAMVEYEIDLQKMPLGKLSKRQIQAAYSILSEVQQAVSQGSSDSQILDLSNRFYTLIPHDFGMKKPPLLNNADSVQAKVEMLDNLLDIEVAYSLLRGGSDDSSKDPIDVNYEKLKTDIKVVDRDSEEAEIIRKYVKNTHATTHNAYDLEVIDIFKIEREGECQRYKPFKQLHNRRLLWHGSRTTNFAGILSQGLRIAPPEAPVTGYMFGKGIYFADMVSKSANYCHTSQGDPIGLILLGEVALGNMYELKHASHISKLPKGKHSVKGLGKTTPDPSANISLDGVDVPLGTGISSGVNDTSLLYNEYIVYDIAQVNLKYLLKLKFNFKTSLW
PARP2, sequence (Q9UGN5 whole entry): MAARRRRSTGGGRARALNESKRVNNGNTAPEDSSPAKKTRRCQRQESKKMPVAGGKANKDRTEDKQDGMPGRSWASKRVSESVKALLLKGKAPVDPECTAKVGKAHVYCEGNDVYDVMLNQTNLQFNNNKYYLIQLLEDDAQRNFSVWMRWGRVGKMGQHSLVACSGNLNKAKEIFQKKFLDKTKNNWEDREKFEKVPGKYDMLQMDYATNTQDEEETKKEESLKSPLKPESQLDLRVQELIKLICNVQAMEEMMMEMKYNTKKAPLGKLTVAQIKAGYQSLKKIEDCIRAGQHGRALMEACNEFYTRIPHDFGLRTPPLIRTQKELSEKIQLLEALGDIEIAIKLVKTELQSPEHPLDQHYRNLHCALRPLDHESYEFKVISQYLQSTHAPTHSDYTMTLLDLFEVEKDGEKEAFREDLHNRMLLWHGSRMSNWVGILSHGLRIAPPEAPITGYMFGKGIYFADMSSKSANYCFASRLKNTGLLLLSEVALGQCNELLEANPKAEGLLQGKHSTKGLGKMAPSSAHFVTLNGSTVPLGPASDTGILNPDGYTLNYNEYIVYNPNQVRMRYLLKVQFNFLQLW

In the case of `CNC(=O)c1ccc(N2CCN(Cc3ccc4c([nH]c(=O)c5ccnn54)c3F)CC2)c(F)n1` [Example 1, 6-fluoro-5-[4-({6-fluoro-4-oxo-5H-pyrazolo[1,5-a]quinoxalin-7-yl}methyl)piperazin-1-yl]-N-methylpyridine-2-carboxamide], the pIC50 was under 4.00 at PARP2 and 8.09 at PARP1. The “Rat Kpuu” value in data set [1] is given as 1.0.

Take `CNC(=O)c1ccc(N2CCN(Cc3ccc4c5c(c(=O)[nH]c4c3F)CCO5)CC2)c(F)n1` [Example 9, 6-fluoro-5-[4-({6-fluoro-4-oxo-2H,3H,5H-furo[3,2-c]quinolin-7-yl}methyl)piperazin-1-yl]-N-methylpyridine-2-carboxamide]: in data set [1], the “Rat Kpuu” value was determined as 0.65. In data set [2], the “HLM Clh” value was under 4 mL/min/kg. Moreover, the Papp A→B at 2 h, 5 μM in data set [3] (apical-to-basolateral, read-out: Caco-2 AB) turned out to be 20.5 ×10⁻⁶ cm/s. Besides, the Papp B→A at 2 h, 5 μM in data set [3] (basolateral-to-apical, read-out: Caco-2 BA) amounted to 28.1 ×10⁻⁶ cm/s. In data set [4], the “HHEP Clh” value is listed as under 3.3 mL/min/kg.

For `[2H]C([2H])([2H])NC(=O)c1ccc(N2CCN(Cc3ccc4c5c(c(=O)[nH]c4c3F)CCO5)CC2)c(F)n1` [Example 22], the pEC50 with DLD-1 parental cells was under 4.52.

In the case of `[2H]C([2H])(c1ccc2c3c(c(=O)[nH]c2c1F)CCO3)N1CCN(c2ccc(C(=O)NC)nc2F)CC1` [Example 24], the “Rat Kpuu” value in data set [1] was determined as 0.81.
